Assay results taken from paper PMC11099041, “Tissue distribution and retention drives efficacy of rapidly clearing VHL-based PROTACs” (Communications Medicine, 2024).

Experiment: Protein binding by equilibrium dialysis (plasma, tissue homogenates, DPBS)
Format: in vitro ADME, rat
Procedure: Control plasma was purchased from BioIVT, Hicksville, New York. Pooled plasma was obtained from at least three rats with K2EDTA as the anticoagulant. Control plasma was used to test the suitability of the system and for positive control analysis. Dulbecco’s phosphate-buffered saline (DPBS) (Millipore Sigma, St Louis, Missouri) was used to test the suitability of the system and as the receiver side of the dialysis device. […] The stock solution was added to the matrix (plasma or DPBS) and swirled to mix. The fortified matrix was then incubated at 37 °C for 15 min. Triplicate aliquots of the fortified matrix were analyzed by LSC.
The high throughput dialysis apparatus, model HTD96b, was used (HTDialysis LLC, Gales Ferry, Connecticut). Prior to assembly, dialysis membrane strips (molecular weight cutoff of 6–8 kDa) were hydrated, and the Teflon bars were assembled according to manufacturer’s instructions, with dialysis membrane strips laid between bars creating two compartments per well. The assembled unit was locked in place in the steel base plate. A 150 µL aliquot of each fortified matrix (tissue homogenates, plasma, or DPBS) and DPBS were added to the donor and receiver side of the HTD wells in a Teflon plate, respectively, and the plate was sealed. Samples were incubated at 37 °C and rotated at 300 rpm for 7 hours. After incubation, the seal was removed, and tissue homogenates, plasma, or DPBS and dialysate from each device insert were analyzed by LSC. All protein binding determinations were performed in triplicate.
Dialysis was performed accordingly. The radioactivity concentration of the test article in the donor and receiver samples was determined by LSC (count time 60 min) for the calculation of protein binding. […] After the designated time, aliquots of the individual donor and receiver samples were removed and analyzed by LSC. The remaining sample volume was stored at −20 °C.
Dialysis was performed accordingly.
Protein binding by equilibrium dialysis:1 PercentDrugBound=(Cm-Cd)/Cm×100 2 PercentDrugUnbound=100-PercentBound where: Cd, concentration of test article in dialysate at equilibrium; Cm, Concentration of test article in matrix at equilibrium.
Recovery from equilibrium dialysis:3 Recovery(%)=(Cm×Vm)+(Cd×Vd)/(Co×Vo)×100 where: Cm, Concentration of test article in matrix at equilibrium; Cd, Concentration of test article in dialysate at equilibrium; Co, Original concentration of test article in matrix prior to loading the dialysis device; Vm, Nominal volume of the matrix at equilibrium; Vd, Nominal volume of the dialysate at equilibrium; Vo, Nominal volume of the original matrix added to the dialysis device.

**Q.** What does the source list for `Cc1ncsc1-c1ccc(C(C)NC(=O)C2CC(O)CN2C(=O)C(c2cc(N3CCC(CN4CCC(OC5CC(Oc6cc(N7C8CCC7CN(c7cc(-[14c]9[14cH][14cH][14cH][14cH][14c]9O)nnc7N)C8)ccn6)C5)CC4)CC3)no2)C(C)C)cc1` (stereo not drawn) [14C-A947]?
**A.** Percent Bound: 99.3%; Percentage bound (mean), Control Plasma: 99.2%; Percentage bound (mean), Kidney: 100%; Percentage bound (mean), Liver: 100%; Percentage bound (mean), Lungs: 99.5%; Percentage bound (mean), Pancreas: 100%; Percentage bound (mean), Plasma (4 hour): 96.8%; Percentage bound (mean), Plasma (24 hour): 98.2%; Percentage bound (mean), Plasma (48 hour): 97.5%; Percentage bound (mean), Prostate Gland: 99.8%; Percentage bound (mean), Spleen: 99.1%; Percentage bound (mean), Thymus: 100%; Fu (rat, plasma): 0.007; Percentage unbound (mean), Control Plasma (rat, plasma): 0.795%; Percentage unbound (mean), Plasma (4 hour) (rat, plasma): 0.548%; Percentage unbound (mean), Plasma (24 hour) (rat, plasma): 0.595%; Percentage unbound (mean), Plasma (48 hour) (rat, plasma): 0.863%; Percentage unbound (mean), Liver (rat, tissue homogenate): 0.0298%; Percentage unbound (mean), Lungs (rat, tissue homogenate): 0.09%; Percentage unbound (mean), Pancreas (rat, tissue homogenate): 0.0125%; Percentage unbound (mean), Thymus (rat, tissue homogenate): 0.0426%
